We go through 65 sequences from the supplement of paper PMC11208160.
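Note: IS621 bridge recombinase in Escherichia coli cells against a fixed T5 target plasmid.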

The nature of the data set: recombinant UMI read abundance after kanamycin selection (control-corrected) (log10(CPM+1)); higher = more efficient recombination; extreme values may be limits of the assay; sequences stand for … in AGTGCAGAGAAAATCGGCCAGTTTTCTCTGCCTGCAGTCCGCATGCCGTGGGACCCCTTGGGTTCTAACCTGTTGCCTAGATTTATGCAGCGGACTGCCTTTCTCCCAAAGTGATAAACCGG…AGGTTGGTTTCACT; site = the 11-nt donor. The method, then: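 Pooled E. coli donor-specificity screen for the IS621 bridge recombinase. Each library member carries a reprogrammed 11-nt donor and a full-length LE bridge RNA expressed in cis from the natural promoter, with a paired donor-binding loop (8-nt LDG + 4-nt RDG) and a target-binding loop fixed to T5. It is co-electroporated with a T5 target plasmid; recombinase is induced with 0.07 mM IPTG and recombinants are selected on kanamycin. UMIs are counted as CPM, averaged over two biological replicates and corrected by the unselected control. Molecule = full bridge RNA written as DNA, built from the T5 scaffold: LDG = donor specificity nt 1-8, RDG = reverse complement of nt 8-11.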
Consider “AAAAGGCCATGGACCGGTTTTCCCGGTAATCCGTATTTGAC (site AAAAGGCCTGT)”, for which the “recombinant UMI read abundance (log10)” value stood at 1.38.
In the case of “AAAAGGCCATGGACCGGTTTTCCCGGTAATCCGTATTTGAC (site ACAAGGCCTGT)”, the “recombinant UMI read abundance (log10)” value was 0.
As to “AAAAGGCCATGGACCGGTTTTCCCGGTAATCCGTATTTGAC (site AGAAGGCCTGT)”, the “recombinant UMI read abundance (log10)” value worked out at 0.
In the case of “AAAAGGCCATGGACCGGTTTTCCCGGTAATCCGTATTTGAC (site ATAAGGCCTGT)”, the “recombinant UMI read abundance (log10)” value stood at 0.
“AAAAGTACATGGACCGGTTTTCCCGGTAATCCGTATTTGAT (site AAAAGTACTAT)”: the “recombinant UMI read abundance (log10)” value was determined as 1.62.
Then “AAAATACCATGGACCGGTTTTCCCGGTAATCCGTATTTGAC (site AAAATACCTGT)”, with 0.
As for “AAACAGACATGGACCGGTTTTCCCGGTAATCCGTATTTGAC (site AAACAGACTGT)”, the “recombinant UMI read abundance (log10)” value turned out to be 2.57.
“AAACAGTCATGGACCGGTTTTCCCGGTAATCCGTATTTGCT (site AAACAGTCTAG)”: the “recombinant UMI read abundance (log10)” value was determined as 2.98.
For “AAACATGCATGGACCGGTTTTCCCGGTAATCCGTATTTGAA (site AAACATGCTTT)” the value was 2.15; for “AAACGCACATGGACCGGTTTTCCCGGTAATCCGTATTTGTG (site AAACGCACTCA)”, 0.245.
As for “AAACGGACATGGACCGGTTTTCCCGGTAATCCGTATTTGTA (site AAACGGACTTA)”, the “recombinant UMI read abundance (log10)” value came out at 1.84.
For “AAACTAACATGGACCGGTTTTCCCGGTAATCCGTATTTGCA (site AAACTAACTTG)” the value was 2.27.
For the sequence “AAACTAACATGGACCGGTTTTCCCGGTAATCCGTATTTGCG (site AAACTAACTCG)”, the “recombinant UMI read abundance (log10)” value is 2.09.
Regarding “AAAGAATCATGGACCGGTTTTCCCGGTAATCCGTATTTGCA (site AAAGAATCTTG)”, the “recombinant UMI read abundance (log10)” value came to 2.66.
For “AAAGAATCATGGACCGGTTTTCCCGGTAATCCGTATTTGCA (site ACAGTATCTTG)”, the “recombinant UMI read abundance (log10)” value is 0.902.
For “AAAGATACATGGACCGGTTTTCCCGGTAATCCGTATTTGTT (site AAAGATACTAA)”, the “recombinant UMI read abundance (log10)” value turned out to be 2.21.
As for “AAAGATTCATGGACCGGTTTTCCCGGTAATCCGTATTTGTT (site AAAGATTCTAA)”, the “recombinant UMI read abundance (log10)” value was found to be 2.82.
For “AAAGATTCATGGACCGGTTTTCCCGGTAATCCGTATTTGTT (site CAAGATTCTAA)”, the “recombinant UMI read abundance (log10)” value was 2.12.
Turning to “AAAGATTCATGGACCGGTTTTCCCGGTAATCCGTATTTGTT (site GAAGATTCTAA)”, the “recombinant UMI read abundance (log10)” value was 0.233.
Turning to “AAAGATTCATGGACCGGTTTTCCCGGTAATCCGTATTTGTT (site TAAGATTCTAA)”, the “recombinant UMI read abundance (log10)” value was 2.48.
With “AAAGTATCATGGACCGGTTTTCCCGGTAATCCGTATTTGGA (site AAAGTATCTTC)”, the “recombinant UMI read abundance (log10)” value was 2.45.
For “AAAGTATCATGGACCGGTTTTCCCGGTAATCCGTATTTGGA (site ACAGTATCTTG)” the value was 0.
As to “AAATAGGCATGGACCGGTTTTCCCGGTAATCCGTATTTGCC (site AAATAGGCTGG)”, the “recombinant UMI read abundance (log10)” value was 1.07.
On to “AAATATACATGGACCGGTTTTCCCGGTAATCCGTATTTGAC (site AAATATACTGT)”, for which the “recombinant UMI read abundance (log10)” value was 2.52.
“AACAACCCATGGACCGGTTTTCCCGGTAATCCGTATTTGAA (site AACAACCCTTT)”: the “recombinant UMI read abundance (log10)” value was found to be 0.192.
As to “AACAAGTCATGGACCGGTTTTCCCGGTAATCCGTATTTGAC (site AACAAGTCTGT)”, the “recombinant UMI read abundance (log10)” value is 1.86.
On to “AACAATACATGGACCGGTTTTCCCGGTAATCCGTATTTGTC (site AACAATACTGA)”, for which the “recombinant UMI read abundance (log10)” value worked out at 1.64.
As for “AACAGTGCATGGACCGGTTTTCCCGGTAATCCGTATTTGTC (site AACAGTGCTGA)”, the “recombinant UMI read abundance (log10)” value came to 2.39.
On to “AACCATCCATGGACCGGTTTTCCCGGTAATCCGTATTTGAT (site AACCATCCTAT)”, for which the “recombinant UMI read abundance (log10)” value amounted to 0.499.
For “AACCATCCATGGACCGGTTTTCCCGGTAATCCGTATTTGAT (site AACCCTCCTAT)”, the “recombinant UMI read abundance (log10)” value came to 0.0146.
With “AACCATCCATGGACCGGTTTTCCCGGTAATCCGTATTTGAT (site AACCGTCCTAT)”, the “recombinant UMI read abundance (log10)” value worked out at 0.00892.
In the case of “AACCATCCATGGACCGGTTTTCCCGGTAATCCGTATTTGAT (site AACCTTCCTAT)”, the “recombinant UMI read abundance (log10)” value is 0.431.
For “AACCCCGCATGGACCGGTTTTCCCGGTAATCCGTATTTGAC (site AACCCCGCTGT)” the value was 2.32.
On to “AACCGAGCATGGACCGGTTTTCCCGGTAATCCGTATTTGTT (site AACCGAGCTAA)”, for which the “recombinant UMI read abundance (log10)” value amounted to 0.146.
Then “AACCGTTCATGGACCGGTTTTCCCGGTAATCCGTATTTGAT (site AACCGTACTAT)”, with 0.00732; and “AACCGTTCATGGACCGGTTTTCCCGGTAATCCGTATTTGAT (site AACCGTCCTAT)”, with 0.012.
Regarding “AACCGTTCATGGACCGGTTTTCCCGGTAATCCGTATTTGAT (site AACCGTGCTAT)”, the “recombinant UMI read abundance (log10)” value is 0.0146.
Then “AACCGTTCATGGACCGGTTTTCCCGGTAATCCGTATTTGAT (site AACCGTTCTAT)”, with 0.348.
“AACCTTTCATGGACCGGTTTTCCCGGTAATCCGTATTTGAC (site AACCTTTCTGT)”: the “recombinant UMI read abundance (log10)” value was found to be 0.
On to “AACCTTTCATGGACCGGTTTTCCCGGTAATCCGTATTTGAC (site ACCCTTTCTGT)”, for which the “recombinant UMI read abundance (log10)” value was found to be 0.
On to “AACCTTTCATGGACCGGTTTTCCCGGTAATCCGTATTTGAC (site AGCCTTTCTGT)”, for which the “recombinant UMI read abundance (log10)” value turned out to be 0.
Then “AACCTTTCATGGACCGGTTTTCCCGGTAATCCGTATTTGAC (site ATCCTTTCTGT)”, with 0; and “AACGACCCATGGACCGGTTTTCCCGGTAATCCGTATTTGAG (site AACGACCCTCT)”, with 0.029.
As to “AACGATCCATGGACCGGTTTTCCCGGTAATCCGTATTTGTA (site AACGATCCTTA)”, the “recombinant UMI read abundance (log10)” value is 1.42.
Regarding “AACGCCGCATGGACCGGTTTTCCCGGTAATCCGTATTTGAG (site AACGCCGCTCT)”, the “recombinant UMI read abundance (log10)” value was determined as 0.916.
For the sequence “AACGGGACATGGACCGGTTTTCCCGGTAATCCGTATTTGAT (site AACGGGACTAT)”, the “recombinant UMI read abundance (log10)” value stood at 2.44.
For “AACTATTCATGGACCGGTTTTCCCGGTAATCCGTATTTGTA (site AACTATTCTTA)”, the “recombinant UMI read abundance (log10)” value was determined as 2.2.
Consider “AACTCAGCATGGACCGGTTTTCCCGGTAATCCGTATTTGGG (site AACTCAGCTCC)”, for which the “recombinant UMI read abundance (log10)” value was determined as 0.0924.
On to “AACTCAGCATGGACCGGTTTTCCCGGTAATCCGTATTTGGG (site ACCTCAGCTCC)”, for which the “recombinant UMI read abundance (log10)” value stood at 0.0111.
As for “AACTCAGCATGGACCGGTTTTCCCGGTAATCCGTATTTGGG (site AGCTCAGCTCC)”, the “recombinant UMI read abundance (log10)” value was 0.00784.
For the sequence “AACTCAGCATGGACCGGTTTTCCCGGTAATCCGTATTTGGG (site ATCTCAGCTCC)”, the “recombinant UMI read abundance (log10)” value worked out at 0.192.
Turning to “AACTGCGCATGGACCGGTTTTCCCGGTAATCCGTATTTGAT (site AACTGCGCTAT)”, the “recombinant UMI read abundance (log10)” value came to 1.34.
Take “AACTGCGCATGGACCGGTTTTCCCGGTAATCCGTATTTGTG (site AACTGCGCTCA)”: the “recombinant UMI read abundance (log10)” value stood at 0.435.
For “AACTGTCCATGGACCGGTTTTCCCGGTAATCCGTATTTGTG (site AACTGTCCTCA)”, the “recombinant UMI read abundance (log10)” value was 0.0176.
Regarding “AACTTGACATGGACCGGTTTTCCCGGTAATCCGTATTTGCT (site AACTTGACTAG)”, the “recombinant UMI read abundance (log10)” value worked out at 0.971.
“AACTTGACATGGACCGGTTTTCCCGGTAATCCGTATTTGCT (site CACTTGACTAG)”: the “recombinant UMI read abundance (log10)” value turned out to be 1.12.
For “AACTTGACATGGACCGGTTTTCCCGGTAATCCGTATTTGCT (site GACTTGACTAG)” the value was 0.665; for “AACTTGACATGGACCGGTTTTCCCGGTAATCCGTATTTGCT (site TACTTGACTAG)”, 1.24.
Regarding “AAGAAAACATGGACCGGTTTTCCCGGTAATCCGTATTTGGT (site AAGAAAACTAC)”, the “recombinant UMI read abundance (log10)” value was determined as 1.5.
With “AAGAACCCATGGACCGGTTTTCCCGGTAATCCGTATTTGAA (site AAGAACCCTTT)”, the “recombinant UMI read abundance (log10)” value is 1.5.
“AAGAAGACATGGACCGGTTTTCCCGGTAATCCGTATTTGCC (site AAGAAGACTGG)”: the “recombinant UMI read abundance (log10)” value came out at 2.47.
For the sequence “AAGAAGACATGGACCGGTTTTCCCGGTAATCCGTATTTGCC (site AGGAAGACTTG)”, the “recombinant UMI read abundance (log10)” value was found to be 0.0155.
Then “AAGAAGCCATGGACCGGTTTTCCCGGTAATCCGTATTTGAC (site AAGAAGCCTGT)”, with 0; and “AAGCACACATGGACCGGTTTTCCCGGTAATCCGTATTTGTT (site AAGCACACTAA)”, with 1.8.
Then “AAGCACGCATGGACCGGTTTTCCCGGTAATCCGTATTTGGA (site AAGCACGCTAC)”, with 0.0278.
